Legend:
FGFR1 = biological target: T1, FGFR1 (Homo sapiens, UniProt P11362); assay: Kinase binding assay (Kd), kinase-tagged T7 phage, affinity beads, qPCR; settings: in vitro binding assay, 11-point 3-fold dilution series
T1 construct: made in house; host or cells: E. coli (BL21-derived) infected with T7 phage
Procedure: (§1) Kinase-tagged T7 phage strains were prepared in an E. coli host derived from the BL21 strain. E. coli were grown to log-phase and infected with T7 phage and incubated with shaking at 32° C. until lysis. The lysates were centrifuged and filtered to remove cell debris. Streptavidin-coated magnetic beads were treated with biotinylated small molecule ligands for 30 minutes at room temperature to generate affinity resins for kinase assays. The liganded beads were blocked with excess biotin and washed with blocking buffer SeaBlock (Pierce), 1% BSA, 0.05% Tween 20, 1 mM DTT to remove unbound ligand and to reduce non-specific binding. Binding reactions were assembled by combining kinases, liganded affinity beads, and test compounds in 1× binding buffer (20% SeaBlock, 0.17×PBS, 0.05% Tween 20, 6 mM DTT).
(§2) Test compounds were prepared as 111× stocks in 100% DMSO. Kds were determined using an 11-point 3-fold compound dilution series with three DMSO control points. All compounds for Kd measurements are distributed by acoustic transfer (non-contact dispensing) in 100% DMSO. The compounds were then diluted directly into the assays such that the final concentration of DMSO was 0.9%. All reactions performed in polypropylene 384-well plate. Each was a final volume of 0.02 ml. The assay plates were incubated at room temperature with shaking for 1 hour and the affinity beads were washed with wash buffer (1×PBS, 0.05% Tween 20). The beads were then re-suspended in elution buffer (1×PBS, 0.05% Tween 20, 0.5 μM non-biotinylated affinity ligand) and incubated at room temperature with shaking for 30 minutes. The kinase concentration in the eluates was measured by qPCR.
(§3) Binding constants were calculated with a standard dose-response curve using the Hill equation: […]
(§4) The Hill Slope was set to −1. Curves were fitted using a non-linear least square fit with the Levenberg-Marquardt algorithm.

FGFR2 = biological target: T2, FGFR2 (Homo sapiens, UniProt P21802); assay: as above; settings: in vitro binding assay, 11-point 3-fold dilution series
T2 construct: made in house; host or cells: E. coli (BL21-derived) infected with T7 phage
Procedure: as §1, §2, §3, §4

FGFR3 = biological target: T3, FGFR3 (Homo sapiens, UniProt P22607); assay: as above; settings: in vitro binding assay, 11-point 3-fold dilution series
T3 construct: made in house; host or cells: E. coli (BL21-derived) infected with T7 phage
Procedure: as §1, §2, §3, §4

FGFR3 (V555M) = biological target: T4, FGFR3 (V555M) (Homo sapiens, UniProt P22607, V555M); assay: as above; settings: in vitro binding assay, 11-point 3-fold dilution series
T4 construct: made in house; host or cells: E. coli (BL21-derived) infected with T7 phage
Procedure: as §1, §2, §3, §4

FGFR4 = biological target: T5, FGFR4 (Homo sapiens, UniProt P22455); assay: as above; settings: in vitro binding assay, 11-point 3-fold dilution series
T5 construct: made in house; host or cells: E. coli (BL21-derived) infected with T7 phage
Procedure: as §1, §2, §3, §4

Ba/F3 BCR-FGFR1 = biological target: T6, Ba/F3 BCR-FGFR1 (Homo sapiens, UniProt P11362); assay: Ba/F3 cell viability assay (CellTiter-Glo 2.0); assay type: cell-based; settings: Ba/F3 cell data, BCR-FGFR1 fusion, 48 hours
T6 construct: BCR (fusion partner); host or cells: Ba/F3; the other entry of the earlier key: BCR (P11274, Breakpoint cluster region protein)

Ba/F3 BCR-FGFR2 = biological target: T7, Ba/F3 BCR-FGFR2 (Homo sapiens, UniProt P21802); assay: Ba/F3 cell viability assay (CellTiter-Glo 2.0); assay type: cell-based; settings: Ba/F3 cell data, BCR-FGFR2 fusion, 48 hours
T7 construct: BCR (fusion partner); host or cells: Ba/F3; the other entry of the earlier key: BCR (P11274, Breakpoint cluster region protein)

Ba/F3 FGFR3-BAIAP2L1 = biological target: T8, Ba/F3 FGFR3-BAIAP2L1 (Homo sapiens, UniProt P22607); assay: Ba/F3 cell viability assay (CellTiter-Glo 2.0); assay type: cell-based; settings: Ba/F3 cell data, FGFR3-BAIAP2L1 fusion, 48 hours
T8 construct: BAIAP2L1 (fusion partner, Q9UHR4 if human); host or cells: Ba/F3; the other entry of the earlier key: BAIAP2L1 (Q9UHR4, BAR/IMD domain-containing adapter protein 2-like 1)

Ba/F3 ETV5-FGFR4 = biological target: T9, Ba/F3 ETV5-FGFR4 (Homo sapiens, UniProt P22455); assay: Ba/F3 cell viability assay (CellTiter-Glo 2.0); assay type: cell-based; settings: Ba/F3 cell data, ETV5-FGFR4 fusion, 48 hours
T9 construct: host or cells: Ba/F3; the other entry of the earlier key: ETV5 (P41161, ETS translocation variant 5)
Excerpt: Experimental Purpose: Recombinant kinase fusions are transduced into parental Ba/F3, which becomes dependent upon this constitutive kinase activity for IL3-independent survival. Inhibition of kinase activity leads to cell death, which is monitored using CellTiter-Glo® 2.0 (Promega) which measures intracellular ATP concentration that in turn serves as a marker for viability. BCR-FGFR1 Ba/F3, BCR-FGFR2 and FGFR3-BAIAP2L1 Ba/F3 were obtained from Advanced Cellular Dynamics (Seattle, WA). ETV6-FGFR4 was obtained from Kyinno (Waltham, MA).
Cell Viability Assay Procedure: Cell Titer-Glo® 2.0 Luminescent cell viability assay reagent was purchased from Promega (Madison, WI). Ba/F3 cell lines were cultured in RPMI1640 media supplemented with 10% fetal bovine serum. Cultures were maintained at 37° C. in a humidified atmosphere of 5% CO2 and 95% air.
Cells were plated in 96-well clear bottom/white plates (Corning #3903) at 10,000 cells/well in 100 μl of media, incubated overnight. The next day, test compound DMSO stock solutions were made at 10 mM and 2 μM final concentration. Compounds were then added to cells in a 9-dose, 10-fold dilution series starting at 30 μM with an HP 300e Digital Dispenser (each dose was applied in triplicate). DMSO was backfilled to each well up to 301 nL total volume of test compound+DMSO, and a total of 301 nL DMSO was added to a control/no test compound well in triplicate. The cells in cell culture plates were incubated with the compounds at 37° C. and 5% CO2 for 48 hours. Then 50 μl of Cell Titer Glo 2.0 reagent was added to each well of the cell culture plates. The contents were covered from light and mixed on an orbital shaker at room temperature for 10 min. Luminescence was recorded by a Synergy H1 Microplate Reader (Biotek, Winooski, VT). Cells were assessed as a percentage of DMSO only treated control cells. Curves were plotted and IC50 values were calculated using the GraphPad Prism 8 program based on a sigmoidal dose-response equation (4 parameter).

KG-1 = assay: Cancer cell line cell viability assay (CellTiter-Glo 2.0); assay type: cell-based; settings: Homo sapiens; KG-1 (FGFR1-fusion) cell viability, 72 hours
Excerpt: (§5) Experimental Purpose: To detect the change of intracellular ATP by Cell Titer-Glo® and to evaluate the inhibitory effect of the compounds on cancer cell lines by determining the in vitro IC50 value of the compounds.
(§6) Cell Titer-Glo® 2.0 Luminescent cell viability assay reagent was purchased from Promega (Madison, WI). RT112/84 and KG-1 cell lines were purchased from American Type Culture Collection (Manassas, VA). UM-UC-14 cell line was purchased from Sigma (St. Louis, MO). RT112/84, UM-UC-14, and KG-1 cells were cultured in RPMI1640 media supplemented with 10% fetal bovine serum. Cultures were maintained at 37° C. in a humidified atmosphere of 5% CO2 and 95% air.
(§7) Cell Viability Assay Procedure: Cells were plated in 96-well clear bottom/white plates (Corning #3903) at 10,000 cells/well in 100 μl of media, incubated overnight. The next day, test compound DMSO stock solutions were made at 10 mM and 2 μM final concentration.
(§8) Compounds were then added to cells in a 9-dose, […] dilution series starting at 30 μM with an HP 300e Digital Dispenser (each dose was applied in triplicate). DMSO was backfilled to each well up to 301 nL total volume of test compound+DMSO, and a total of 301 nL DMSO was added to a control/no test compound well in triplicate. The cells in cell culture plates were incubated with the compounds at 37° C. and 5% CO2 for 72 hours. Then 50 μl of Cell Titer Glo 2.0 reagent was added to each well of the cell culture plates. The contents were covered from light and mixed on an orbital shaker at room temperature for 10 min.
(§9) Luminescence was recorded by a Synergy H1 Microplate Reader (Biotek, Winooski, VT). Cells were assessed as a percentage of DMSO only treated control cells. Curves were plotted and IC50 values were calculated using the GraphPad Prism 8 program based on a sigmoidal dose-response equation (4 parameter).

RT112/84 = assay: as above; assay type: cell-based; settings: Homo sapiens; RT112/84 (FGFR3-fusion) cell viability, 72 hours
Excerpt: as §5, §6, §7, §8, §9

KatoIIII = assay: as above; assay type: cell-based; settings: 72 hours

T5 sequence (P22455 22-802): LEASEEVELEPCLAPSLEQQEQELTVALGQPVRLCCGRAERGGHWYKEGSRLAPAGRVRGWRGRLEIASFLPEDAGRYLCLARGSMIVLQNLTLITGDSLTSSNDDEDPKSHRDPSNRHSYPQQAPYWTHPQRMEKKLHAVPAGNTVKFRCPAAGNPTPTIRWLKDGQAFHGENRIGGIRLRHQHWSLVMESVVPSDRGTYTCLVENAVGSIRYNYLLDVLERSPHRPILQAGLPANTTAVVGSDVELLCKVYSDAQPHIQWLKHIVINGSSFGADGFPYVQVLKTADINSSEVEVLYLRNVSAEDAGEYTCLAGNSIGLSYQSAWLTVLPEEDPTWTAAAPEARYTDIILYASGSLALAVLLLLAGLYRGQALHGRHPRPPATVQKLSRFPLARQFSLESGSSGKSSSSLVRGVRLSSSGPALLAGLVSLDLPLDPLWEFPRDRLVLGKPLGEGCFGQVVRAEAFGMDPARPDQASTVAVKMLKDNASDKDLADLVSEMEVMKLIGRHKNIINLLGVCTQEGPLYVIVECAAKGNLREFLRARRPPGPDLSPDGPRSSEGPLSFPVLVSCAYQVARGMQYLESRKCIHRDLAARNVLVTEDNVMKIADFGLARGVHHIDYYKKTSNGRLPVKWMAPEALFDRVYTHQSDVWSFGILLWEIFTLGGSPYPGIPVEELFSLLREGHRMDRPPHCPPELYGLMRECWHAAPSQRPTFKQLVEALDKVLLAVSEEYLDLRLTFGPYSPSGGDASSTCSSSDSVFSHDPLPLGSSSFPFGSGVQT
T6 sequence (P11362 478-767 limits assumed): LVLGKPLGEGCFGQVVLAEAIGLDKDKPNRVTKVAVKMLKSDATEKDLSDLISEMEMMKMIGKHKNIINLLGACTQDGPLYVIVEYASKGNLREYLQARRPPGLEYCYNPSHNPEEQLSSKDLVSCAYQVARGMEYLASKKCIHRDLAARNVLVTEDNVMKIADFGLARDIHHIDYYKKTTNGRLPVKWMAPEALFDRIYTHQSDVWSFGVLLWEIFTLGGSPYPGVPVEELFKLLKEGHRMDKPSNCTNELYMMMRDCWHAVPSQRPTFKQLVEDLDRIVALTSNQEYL
T2 sequence (P21802 22-821): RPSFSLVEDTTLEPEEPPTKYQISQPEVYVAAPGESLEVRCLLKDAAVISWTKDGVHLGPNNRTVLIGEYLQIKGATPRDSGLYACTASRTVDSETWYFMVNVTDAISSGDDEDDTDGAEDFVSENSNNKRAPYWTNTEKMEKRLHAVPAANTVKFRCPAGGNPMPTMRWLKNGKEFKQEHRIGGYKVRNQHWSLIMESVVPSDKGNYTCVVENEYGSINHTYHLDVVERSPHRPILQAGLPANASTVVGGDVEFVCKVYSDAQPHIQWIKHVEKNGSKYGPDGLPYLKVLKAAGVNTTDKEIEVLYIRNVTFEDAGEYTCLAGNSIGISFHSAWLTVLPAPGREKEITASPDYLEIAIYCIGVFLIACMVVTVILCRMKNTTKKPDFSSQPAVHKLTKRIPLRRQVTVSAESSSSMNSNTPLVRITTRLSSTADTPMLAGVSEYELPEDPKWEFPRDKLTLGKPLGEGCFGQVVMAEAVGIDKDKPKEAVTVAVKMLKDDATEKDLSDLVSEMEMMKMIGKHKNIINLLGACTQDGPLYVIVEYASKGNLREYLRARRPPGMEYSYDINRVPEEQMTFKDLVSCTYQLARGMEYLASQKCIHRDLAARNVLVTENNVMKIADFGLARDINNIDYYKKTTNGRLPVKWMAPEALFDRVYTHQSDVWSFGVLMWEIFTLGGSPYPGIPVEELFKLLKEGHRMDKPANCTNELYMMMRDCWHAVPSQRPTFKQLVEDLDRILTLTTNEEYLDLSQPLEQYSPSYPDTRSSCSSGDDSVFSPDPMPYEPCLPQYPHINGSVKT
T8 sequence (P22607 397-758 limits assumed): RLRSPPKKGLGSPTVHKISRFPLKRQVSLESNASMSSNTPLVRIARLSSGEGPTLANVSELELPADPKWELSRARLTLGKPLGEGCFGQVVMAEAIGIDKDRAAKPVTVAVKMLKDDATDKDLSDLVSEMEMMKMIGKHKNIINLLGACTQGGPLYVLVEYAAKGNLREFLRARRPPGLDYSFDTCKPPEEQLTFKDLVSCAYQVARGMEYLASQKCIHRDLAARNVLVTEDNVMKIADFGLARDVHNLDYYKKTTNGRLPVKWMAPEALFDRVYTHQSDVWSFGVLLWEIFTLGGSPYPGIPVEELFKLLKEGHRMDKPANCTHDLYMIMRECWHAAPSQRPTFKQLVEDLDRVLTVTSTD
T4 sequence (P22607 23-806 V555M): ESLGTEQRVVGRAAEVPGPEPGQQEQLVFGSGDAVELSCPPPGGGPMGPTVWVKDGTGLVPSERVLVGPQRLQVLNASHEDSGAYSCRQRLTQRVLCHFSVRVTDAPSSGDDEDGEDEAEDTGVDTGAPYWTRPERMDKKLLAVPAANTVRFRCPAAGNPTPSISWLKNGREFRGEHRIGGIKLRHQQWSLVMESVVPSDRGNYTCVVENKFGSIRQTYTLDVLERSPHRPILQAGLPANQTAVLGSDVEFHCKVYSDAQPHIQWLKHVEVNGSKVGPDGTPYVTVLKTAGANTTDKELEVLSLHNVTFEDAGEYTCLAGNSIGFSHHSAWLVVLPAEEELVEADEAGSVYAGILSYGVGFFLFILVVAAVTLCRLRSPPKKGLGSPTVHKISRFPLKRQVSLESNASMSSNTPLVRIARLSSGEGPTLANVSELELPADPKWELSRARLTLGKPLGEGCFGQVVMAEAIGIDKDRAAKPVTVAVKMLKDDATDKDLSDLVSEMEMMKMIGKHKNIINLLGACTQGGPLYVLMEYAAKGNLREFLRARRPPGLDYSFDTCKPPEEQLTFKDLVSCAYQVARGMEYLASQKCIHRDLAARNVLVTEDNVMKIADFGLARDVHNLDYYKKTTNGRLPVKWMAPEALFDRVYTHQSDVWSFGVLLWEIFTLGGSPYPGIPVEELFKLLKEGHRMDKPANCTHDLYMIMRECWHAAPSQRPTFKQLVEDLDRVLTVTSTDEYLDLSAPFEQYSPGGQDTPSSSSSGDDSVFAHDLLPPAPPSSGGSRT
T1 sequence (P11362 22-822): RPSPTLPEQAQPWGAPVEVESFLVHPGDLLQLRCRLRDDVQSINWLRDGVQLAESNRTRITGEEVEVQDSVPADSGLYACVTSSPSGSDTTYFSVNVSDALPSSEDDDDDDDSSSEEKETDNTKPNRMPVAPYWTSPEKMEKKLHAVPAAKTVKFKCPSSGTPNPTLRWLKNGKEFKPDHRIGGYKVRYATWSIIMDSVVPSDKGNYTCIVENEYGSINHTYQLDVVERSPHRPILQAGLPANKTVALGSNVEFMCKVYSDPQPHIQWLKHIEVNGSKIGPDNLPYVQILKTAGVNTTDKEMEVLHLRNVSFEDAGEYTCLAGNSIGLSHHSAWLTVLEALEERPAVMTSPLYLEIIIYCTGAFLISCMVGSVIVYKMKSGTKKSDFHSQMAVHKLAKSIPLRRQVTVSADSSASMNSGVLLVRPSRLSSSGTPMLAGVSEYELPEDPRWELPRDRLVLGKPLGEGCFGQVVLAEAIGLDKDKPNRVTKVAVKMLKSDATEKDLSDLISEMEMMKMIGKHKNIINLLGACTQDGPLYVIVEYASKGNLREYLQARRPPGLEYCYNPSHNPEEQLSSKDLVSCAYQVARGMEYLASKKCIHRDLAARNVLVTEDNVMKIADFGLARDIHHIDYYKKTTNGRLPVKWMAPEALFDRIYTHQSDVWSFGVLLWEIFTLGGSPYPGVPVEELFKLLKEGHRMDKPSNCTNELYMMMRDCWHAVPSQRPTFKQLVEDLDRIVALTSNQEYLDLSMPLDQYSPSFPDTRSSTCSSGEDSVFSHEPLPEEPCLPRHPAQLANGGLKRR
T9 sequence (P22455 467-755 limits assumed): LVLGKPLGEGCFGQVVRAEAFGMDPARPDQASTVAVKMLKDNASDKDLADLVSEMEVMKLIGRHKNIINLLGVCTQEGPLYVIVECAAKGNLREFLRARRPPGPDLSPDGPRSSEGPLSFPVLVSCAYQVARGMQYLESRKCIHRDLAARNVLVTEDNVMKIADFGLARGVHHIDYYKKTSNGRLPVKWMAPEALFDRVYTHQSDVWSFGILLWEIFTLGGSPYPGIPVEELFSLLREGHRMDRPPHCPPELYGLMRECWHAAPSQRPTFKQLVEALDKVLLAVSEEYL
T3 sequence (P22607 23-806): as the sequence (P22607 23-806 V555M) above, with M533V counted along it
T7 sequence (P21802 481-770 limits assumed): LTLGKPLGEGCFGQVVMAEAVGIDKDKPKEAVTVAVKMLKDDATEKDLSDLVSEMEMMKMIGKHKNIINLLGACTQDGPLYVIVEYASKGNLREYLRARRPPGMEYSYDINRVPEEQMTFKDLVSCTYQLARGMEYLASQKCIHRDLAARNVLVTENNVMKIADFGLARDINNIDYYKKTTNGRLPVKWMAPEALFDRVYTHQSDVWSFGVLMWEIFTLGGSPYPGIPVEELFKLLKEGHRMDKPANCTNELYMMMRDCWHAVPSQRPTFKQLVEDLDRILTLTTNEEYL

Kd (FGFR1)	Kd (FGFR2)	Kd (FGFR3)	Kd (FGFR3 (V555M))	Kd (FGFR4)	IC50 (KG-1)	IC50 (RT112/84)	IC50 (KatoIIII)	Compound	Kd (Ba/F3 BCR-FGFR1)	Kd (Ba/F3 BCR-FGFR2)	Kd (Ba/F3 FGFR3-BAIAP2L1)	Kd (Ba/F3 ETV5-FGFR4)
0.1 to 100 nM	0.1 to 100 nM	0.1 to 100 nM	0.1 to 100 nM	0.1 to 100 nM	≥ 1000 nM	≥ 1000 nM	≥ 1000 nM	C=CC(=O)N1CC(C(=O)N2CCC(n3nnc(-c4cc(O[C@H](CO)c5ccccn5)c5c(C#N)cnn5c4)c3C)CC2)C1 (single isomer, unassigned) [Example 18]	≥ 1000 nM	≥ 1000 nM	250 to 1000 nM	≥ 1000 nM
0.1 to 100 nM	0.1 to 100 nM	0.1 to 100 nM	0.1 to 100 nM	0.1 to 100 nM	250 to 1000 nM	100 to 250 nM	≥ 1000 nM	C=CC(=O)N1CC(F)(C(=O)N2CCC(n3nnc(-c4cc(O[C@H](CO)c5ccccn5)c5c(C#N)cnn5c4)c3C)CC2)C1 (single isomer, unassigned) [Example 20]	≥ 1000 nM	≥ 1000 nM	0.1 to 100 nM	≥ 1000 nM
0.1 to 100 nM	0.1 to 100 nM	0.1 to 100 nM	0.1 to 100 nM	0.1 to 100 nM	≥ 1000 nM	250 to 1000 nM	250 to 1000 nM	C=CC(=O)N1CCC2(CC1)CC(n1ncc(-c3cc(O[C@H](CO)c4ccc(F)cn4)c4c(C#N)cnn4c3)c1C)C2 [Example 9, (S)-6-(1-(7-acryloyl-7-azaspiro[3.5]nonan-2-yl)-5-methyl-1H-pyrazol-4-yl)-4-(1-(5-fluoropyridin-2-yl)-2-hydroxyethoxy)pyrazolo[1,5-a]pyridine-3-carbonitrile]	250 to 1000 nM	100 to 250 nM	0.1 to 100 nM	250 to 1000 nM

Compound	Kd (FGFR1)	Kd (FGFR2)	Kd (FGFR3)	Kd (FGFR3 (V555M))	Kd (FGFR4)	IC50 (KG-1)	IC50 (RT112/84)	IC50 (KatoIIII)	Kd (Ba/F3 BCR-FGFR1)	Kd (Ba/F3 BCR-FGFR2)	Kd (Ba/F3 FGFR3-BAIAP2L1)	Kd (Ba/F3 ETV5-FGFR4)
C=CC(=O)N1CCC2(CC1)CC(n1nnc(-c3cc(O[C@H](C)c4ccccn4)c4c(C#N)cnn4c3)c1C)C2 [Example 3, (R)-6-(1-(7-acryloyl-7-azaspiro[3.5]nonan-2-yl)-5-methyl-1H-1,2,3-triazol-4-yl)-4-(1-(pyridin-2-yl)ethoxy)pyrazolo[1,5-a]pyridine-3-carbonitrile]	0.1 to 100 nM	–	0.1 to 100 nM	–	–	0.1 to 100 nM	0.1 to 100 nM	0.1 to 100 nM	0.1 to 100 nM	0.1 to 100 nM	0.1 to 100 nM	100 to 250 nM
